Like-named read-outs stand apart in the source and are kept apart here.
Tests used:
Hela [1] = test: In vitro antiproliferative assay (CCK-8); format: cell-based, human; settings: Homo sapiens, HeLa; CCK-8, 48 h, mean ± SD
From the text: The experiment was repeated three times.

[2] = target: recombinant human Cdc20 protein (Homo sapiens, UniProt Q12834); test: Surface plasmon resonance (SPR) assay; format: binding; settings: for Kd: dissociation-equilibrium constant; for Kd / Kd (1/S): one-to-one model; for Kd (1/S): dissociation-rate constant
recombinant human Cdc20 protein, sequence (Q12834 whole entry): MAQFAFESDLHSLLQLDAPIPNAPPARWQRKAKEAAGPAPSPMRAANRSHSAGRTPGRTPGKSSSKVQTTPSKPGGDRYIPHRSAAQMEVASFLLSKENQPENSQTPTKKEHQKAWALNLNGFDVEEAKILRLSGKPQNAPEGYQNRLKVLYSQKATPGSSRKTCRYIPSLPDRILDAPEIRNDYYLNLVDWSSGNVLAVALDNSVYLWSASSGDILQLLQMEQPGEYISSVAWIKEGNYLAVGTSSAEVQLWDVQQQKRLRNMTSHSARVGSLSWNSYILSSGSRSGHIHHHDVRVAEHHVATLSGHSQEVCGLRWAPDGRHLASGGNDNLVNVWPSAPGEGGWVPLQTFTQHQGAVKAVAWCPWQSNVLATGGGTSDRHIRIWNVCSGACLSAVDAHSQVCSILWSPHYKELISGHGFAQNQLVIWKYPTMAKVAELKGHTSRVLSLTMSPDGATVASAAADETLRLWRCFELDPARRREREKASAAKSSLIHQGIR
Method: Surface plasmon resonance (SPR) analysis can measure the interaction process between various biomolecules, such as polypeptides, proteins, oligonucleotides, and oligosaccharides, as well as viruses, bacteria, cells, and small molecular compounds. First, we installed the COOH chip according to the standard operating procedure of the OpenSPRTM instrument and started running it at the maximum flow rate (150 μL/min). The detection buffer was PBS, and after reaching the signal baseline, 200 μL of isopropanol were loaded and the air was removed by running for 10 s. After reaching baseline, the sample loop was flushed with buffer and evacuated with air, and after the signal reached baseline, the buffer flow rate was adjusted to 20 μL/min. A total of 200 μL of EDC/NHS (1:1) solution (20 μL/min, 4 min), 200 μL EDC/NHS (1:1) solution (20 μL/min, 4 min), and 200 μL recombinant human Cdc20 protein buffer was loaded and run for 4 min (20 μL/min), and the sample loop was rinsed with buffer and drained with null air. A total of 200 μL of blocking solution was loaded (20 μL/min, 4 min), and the sample loop was flushed with buffer and evacuated with air. After the baseline was stable, the analyte was diluted with buffer and loaded at 20 μL/min. The binding time of the analyte and the ligand was 240 s, and the natural dissociation time was 480 s. The analysis software used for the experimental results was TraceDrawer (Ridgeview Instruments ab, Sweden), and the analysis method was the one-to-one analysis model.
Molecules were tested in a dilution series starting at 500 μM. The analyte was diluted with buffer and loaded at 20 μL/min. The binding time of the analyte and the ligand was 240 s, and the natural dissociation time was 480 s. The analysis software used for the experimental results was TraceDrawer (Ridgeview Instruments AB, Sweden), and the analysis method was the one-to-one analysis model.

Hela cells [3] = test: Annexin V-FITC/PI double-staining cell-apoptosis assay; format: cell-based, human; settings: 24 h, in words
Method: Then, the preset drug concentration was added and incubated for 24 h. Cells were collected by centrifugation, resuspended in buffer, and then stained by adding Annexin V-FITC (5 μL) and PI Staining Solution (5 μL) and incubated at room temperature for 10 min. The samples were detected by flow cytometry within 1 h after staining. Flow cytometer (Beckman Coulter Cytofex) was used for subsequent detection, and the data were processed with FlowJo software.

Hela cells [4] = test: Cell-cycle assay (flow cytometry, propidium iodide); format: cell-based, human; settings: 24 h; for number of cells in the mitotic G2/M phase: in words
Method: Then, the preset drug concentration was added and incubated for 24 h. Cells were collected by centrifugation and were fixed overnight with pre-cooled ethanol (70%) and washed twice with buffer, propidium-iodide staining solution was added (0.5 mL/well), and they were incubated at 37 °C for 30 min in the dark for flow detection.

Mda-mb-231 = test: In vitro antiproliferative assay (CCK-8); settings: Homo sapiens, MDA-MB-231, 48 h, read-out: IC50 ± SD Mda-mb-231
Method: (§1) Hela and MDA-MB-132 cells were grown in DMEM (Gibco) containing 10% FBS and 1% double antibody (penicillin 100 U/mL, streptomycin 100 μg/mL, Solarbio). […] All cell lines were purchased from the Xiangya Cell Bank, Central South University, Changsha, China, and incubated at 37 °C with 5% CO2 in a humidified atmosphere. […] Cytotoxicity assay was assessed using CCK-8 methods. The cells were seeded in a 96-well plate (2 × 10^3–3 × 10^3 cells/well), the 96-well plate was incubated at 37 °C with 5% CO2 in a humidified atmosphere, and the cells were grown in a monolayer; the original culture was discarded. A total of 100 μL of drug-containing medium with a specific concentration gradient was added and then cultivated for 48 h; 10 μL/well of CCK-8 solution was added, put in an incubator, and incubated for 1 h and read with a multi-function microplate reader at a wavelength of 450 nm. The inhibition rate was calculated, and the IC50 results were calculated by GraphPad Prism 7 software. The experiment was repeated three times.

Hepg2 [5] = test: In vitro antiproliferative assay (CCK-8); settings: Homo sapiens, HepG2, 48 h, read-out: IC50 ± SD Hepg2
Method: as §1

Mcf-7 [6] = test: In vitro antiproliferative assay (CCK-8); settings: Homo sapiens, MCF7, 48 h, read-out: IC50 ± SD Mcf-7
Method: as §1

Hela [7] = test system: Hela; design: method as in PMID 32290657; settings: previous studies; read-out: IC50 ± SD Hela; cited from earlier work
tubulin [8] = test system: tubulin; design: method as in PMID 32290657; settings: previous research of the authors; cited from earlier work
Hepg2 [9] = test system: Hepg2; design: method as in PMID 32290657; settings: previous studies; read-out: IC50 ± SD Hepg2; cited from earlier work
Mcf-7 [10] = test system: Mcf-7; design: method as in PMID 32290657; settings: previous studies; read-out: IC50 ± SD Mcf-7; cited from earlier work
[11] = test system: Cdc20 and downstream substrates (cyclin B1, securin, Bim, cleaved PARP) in Hela cells; test: Western blot of Cdc20 and Cdc20 downstream proteins; format: cell-based, human; settings: for Cdc20 protein level: 12 h after addition
Method: The lysate for extracting cellular proteins was prepared with bromophenol blue (0.02%), dithiothreitol (DTT; 0.5M), glycerol (30%), sodium dodecyl sulfate (SDS; 10%) and Tris-Cl (0.25M, pH 6.8). Protein extracts were separated according to molecular weight by the polyacrylamide gel electrophoresis (PAGE) method and then transferred to solid-phase support (PVDF membrane). The PVDF membrane was placed in a blocking solution containing 5% skim milk for 2 h, followed by incubation with primary and secondary antibodies, and the bands were detected and imaged in the ChemiDocTMXRS+ imaging system.
Figure 1 (A) Expression levels of Cdc20 protein in different cell lines. (B) Cdc20 levels were measured by Western blot 12 h after the addition of compounds. The reproducibility of the results was confirmed by at least two separate experiments. (a) Quantitative results of (A) compared to Hela. (b) Quantitative results of (B) compared to control. Statistical significance was calculated by two-tailed unpaired t test.
Figure 4 (A) Protein levels of cyclin B1 and securin were measured by Western blot. (B) Protein levels of Bim were measured by Western blot. (C) Protein levels of cleaved PARP were measured by Western blot. […] (a–d) Quantitative results of (A–C) compared to control. Statistical significance was calculated by two-tailed unpaired t test (* p < 0.05, ** p < 0.01, *** p < 0.001).

tubulin [12] = test: Tubulin polymerization assay in vitro; format: biochemical
Method: We used an HTS-Tubulin Polymerization Assay Kit (BK004P, Cytoskeleton, USA) to assess the inhibitory effect of compounds on tubulin polymerization. Tubulin solution was prepared, and the compound solution and paclitaxel solution were tested according to the instructions of the kit. General tubulin buffer, paclitaxel solution, and 10× test compound solution were added to a 96-well plate (10 μL/well) and incubated at 37 °C for two minutes. A total of 100 μL of tubulin solution was pipetted into the corresponding wells. The plate was immediately placed on a multi-function microplate reader at 37 °C, and the continuous kinetic values were recorded.
Figure 7 The effect of compound 20 and compound 27 on in vitro tubulin polymerization was tested. Polymerization of purified tubulin was performed in a cell-free assay. Tubulin protein was incubated at 37 °C in a reaction buffer exposed to vehicle control or test compounds at the indicated concentrations. Absorbance at 340 nm was monitored at 37 °C every 30 s for 1 h.

four cancer-cell lines = test: In vitro antiproliferative assay (CCK-8), cell line not given; settings: Homo sapiens, read-out: IC50 (antiproliferative activity)

With `Cc1ncc([N+](=O)[O-])n1CCOC(=O)N[C@@H](Nc1ncccn1)C(Cl)(Cl)Cl` (racemic) [Apcin] the IC50 (Hela [1]) was 182 ± 12.5 µM, the Kd [2] was 236 µM and the “Kd (1/S)” value [2] was 2.33 × 10^−2 1/S. The apoptotic rates (Hela cells [3]) was “increased in a concentration-dependent way”, the “P4 gate (cells in the G2/M phase)” value (Hela cells [4]; 150μm) was 34.87% and the “number of cells in the mitotic G2/M phase” value (shortened to “number of cells”) (Hela cells [4]) was “significant increase”. The IC50 (Mda-mb-231) was over 100 µM, the IC50 (Hepg2 [5]) was over 100 µM and the IC50 (Mcf-7 [6]) was over 100 µM.
In the case of `Nc1nc(F)nc2c1ncn2[C@H](NC(=O)OCCN1CCOCC1)C(Cl)(Cl)Cl` [Compound 9f, reference compound], the IC50 (Hela [1]) is given as 0.1 ± 0.02 µM, the IC50 (Hela [7]) is given as 0.3 ± 0.2 µM and the “effect on Cdc20 and microtubules” value (tubulin [8]) is given as “dual inhibitory effects of Cdc20 and microtubules”. It also gave an IC50 (Mda-mb-231) of 1.4 ± 0.22 µM, an IC50 (Hepg2 [5]) of 0.41 ± 0.36 µM and an IC50 (Mcf-7 [6]) of 0.61 ± 0.12 µM.
In the case of `Cc1ncc([N+](=O)[O-])n1CCOC(=O)N[C@H](Nc1c(Cl)nc(N)nc1Cl)C(Cl)(Cl)Cl` [Compound 7d], the IC50 (Hepg2 [9]) is given as 25.6 ± 6.1 µM, the IC50 (Mcf-7 [10]) is given as 160 ± 5 µM and the IC50 (Hela [7]) is given as 63.2 ± 0.9 µM.
For `Nc1nc(F)nc2c1ncn2C(NC(=O)NCCN1CCOCC1)C(Cl)(Cl)Cl` (stereo not drawn) [Compound 27, 1-(1-(6-amino-2-fluoro-9H-purin-9-yl)-2,2,2-trichloroethyl)-3-(2-morpholinoethyl)urea], the IC50 (Hela [1]) was 0.06 ± 0.02 µM, the “expression of Bim” value [11] was “significantly increase” and the “expression of cleaved PARP” value [11] was “significantly increase”. For the same compound, the “level of cyclin B1 protein” value [11] was “significantly increased”, the “level of securin protein” value [11] was “significantly increased” and the Cdc20 protein level [11] was “no effect”. For the same compound, the apoptotic rates (Hela cells [3]) was “increased in a concentration-dependent way”, the “number of cells” value (Hela cells [4]) was “slightly reduced” and the “effect on microtubule polymerization” value (tubulin [12]; cell-free, purified tubulin, 37 °C, absorbance 340 nm, 3 μM and 30 μM) was “promoted microtubule polymerization in a concentration-dependent manner”. It also gave an IC50 (Mda-mb-231) of 0.32 ± 0.04 µM, an IC50 (Hepg2 [5]) of 0.24 ± 0.11 µM and an IC50 (Mcf-7 [6]) of 0.27 ± 0.06 µM.
For `CC(=O)O[C@H]1C(=O)[C@@]2(C)[C@H]([C@H](OC(=O)c3ccccc3)[C@]3(O)C[C@H](OC(=O)[C@H](O)[C@@H](NC(=O)c4ccccc4)c4ccccc4)C(C)=C1C3(C)C)[C@]1(OC(C)=O)CO[C@@H]1C[C@@H]2O` [paclitaxel, reference compound], the “effect on microtubule polymerization” value (tubulin [12]; reference compound, concentration not given) was “promote microtubule polymerization”.
In the case of `Nc1c(Cl)nc(NC(NC(=O)NCCc2ccccc2)C(Cl)(Cl)Cl)nc1Cl` (stereo not drawn) [Compound 20, 1-(1-((5-amino-4,6-dichloropyrimidin-2-yl)amino)-2,2,2-trichloroethyl)-3-phenethylurea], the IC50 (Hela [1]) is reported as 24.7 ± 2.01 µM, the Kd [2] is reported as 79.6 µM and the “Kd (1/S)” value [2] is reported as 5.78 × 10^−3 1/S. The “binding affinity to Cdc20 relative to Apcin” value ([2]; from Kd values) was “about three times”, the “expression of Bim” value [11] was “significantly increase” and the “expression of cleaved PARP” value [11] was “significantly increase”. For the same compound, the “level of cyclin B1 protein” value [11] was “significantly increased”, the “level of securin protein” value [11] was “significantly increased” and the Cdc20 protein level [11] was “no effect”. For the same compound, the apoptotic rates (Hela cells [3]) was “increased in a concentration-dependent way”, the “P4 gate (cells in the G2/M phase)” value (Hela cells [4]; 40μm) was 41.09% and the “number of cells” value (Hela cells [4]) was “significant increase”. For the same compound, the “effect on microtubule polymerization” value (tubulin [12]; cell-free, purified tubulin, 37 °C, absorbance 340 nm, 30 μM) was “slightly promoted microtubule polymerization”, the IC50 (Mda-mb-231) was 30.4 ± 13 µM and the IC50 (Hepg2 [5]) was 31.2 ± 8.37 µM. It also gave an IC50 (Mcf-7 [6]) of 35 ± 3.06 µM and an IC50 (four cancer-cell lines) of under 40 µM.

— article PMC9964651, “Discovery of Ureido-Based Apcin Analogues as Cdc20-specific Inhibitors against Cancer” (Pharmaceuticals, 2023)
